# Test results: ChEMBL document CHEMBL5465560, “Selectivity Literature for EUbOPEN Chemogenomic Library” (2024)
# Changes are numbered by the printed parent chain.
# Legend:
# [1] = biological target: Epithelial discoidin domain-containing receptor 1 (Homo sapiens) (UniProt Q08345); test: Selectivity interaction (KinomeScan (DiscoverX)) EUB0000045b DDR1
# [2] = biological target: T1, Aurora kinase A (Homo sapiens) (UniProt O14965); test: Selectivity interaction (SelectScreen profiling (Invitrogen)) EUB0000607a STK6; conditions: at 2 µM
# T1 sequence (whole entry): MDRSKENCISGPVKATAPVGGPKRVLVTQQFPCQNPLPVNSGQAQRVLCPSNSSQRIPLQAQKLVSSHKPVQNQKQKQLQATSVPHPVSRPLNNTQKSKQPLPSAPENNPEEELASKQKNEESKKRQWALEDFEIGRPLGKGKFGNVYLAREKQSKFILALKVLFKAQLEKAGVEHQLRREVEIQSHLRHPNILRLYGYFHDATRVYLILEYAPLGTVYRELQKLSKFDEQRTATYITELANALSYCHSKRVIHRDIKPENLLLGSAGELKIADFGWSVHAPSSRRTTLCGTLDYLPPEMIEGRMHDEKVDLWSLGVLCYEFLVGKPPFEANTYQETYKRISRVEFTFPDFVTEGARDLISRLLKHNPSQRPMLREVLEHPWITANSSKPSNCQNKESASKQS
# [3] = test system: T2, Discoidin domain-containing receptor 2 (Homo sapiens), Q16832 [N456S]; test: (§1) Selectivity interaction (LanthaScreen Eu Kinase Binding Assay) EUB0001632a DDR2; conditions: at 10 µM
# T2 sequence (whole entry): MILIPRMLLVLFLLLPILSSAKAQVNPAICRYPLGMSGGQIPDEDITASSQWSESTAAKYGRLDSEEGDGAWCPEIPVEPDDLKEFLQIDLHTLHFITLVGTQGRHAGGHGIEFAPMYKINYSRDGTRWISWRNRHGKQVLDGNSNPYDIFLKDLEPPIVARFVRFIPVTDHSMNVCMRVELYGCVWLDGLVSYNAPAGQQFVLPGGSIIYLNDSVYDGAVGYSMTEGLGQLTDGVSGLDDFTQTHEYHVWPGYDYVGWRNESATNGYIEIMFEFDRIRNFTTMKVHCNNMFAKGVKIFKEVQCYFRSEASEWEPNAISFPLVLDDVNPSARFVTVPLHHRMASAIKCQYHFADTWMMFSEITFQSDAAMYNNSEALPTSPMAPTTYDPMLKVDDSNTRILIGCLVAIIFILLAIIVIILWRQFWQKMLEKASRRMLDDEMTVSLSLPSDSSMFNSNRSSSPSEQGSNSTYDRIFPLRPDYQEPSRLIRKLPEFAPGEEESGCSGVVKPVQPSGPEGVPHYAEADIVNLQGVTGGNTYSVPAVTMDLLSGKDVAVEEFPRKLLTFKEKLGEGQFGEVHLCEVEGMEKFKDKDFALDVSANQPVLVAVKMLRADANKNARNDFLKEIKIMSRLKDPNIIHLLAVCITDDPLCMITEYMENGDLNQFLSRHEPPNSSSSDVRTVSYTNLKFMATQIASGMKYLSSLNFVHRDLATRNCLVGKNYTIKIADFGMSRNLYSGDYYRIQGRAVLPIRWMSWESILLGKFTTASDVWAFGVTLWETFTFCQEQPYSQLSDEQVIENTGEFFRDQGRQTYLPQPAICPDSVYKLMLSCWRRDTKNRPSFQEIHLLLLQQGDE
# [4] = test system: T3, Discoidin domain-containing receptor 2 (Homo sapiens), Q16832 [T654M]; test: as §1; conditions: at 10 µM
# T3 sequence (whole entry): T2 sequence (whole entry) with S456N, T654M
# [5] = biological target: T4, Discoidin domain-containing receptor 2 (Homo sapiens) (UniProt Q16832); test: as §1; conditions: at 10 µM
# T4 sequence (whole entry): T2 sequence (whole entry) with S456N
# Sequence of Epithelial discoidin domain-containing receptor 1 (Homo sapiens) (Q08345 whole entry, the tested form may be a part): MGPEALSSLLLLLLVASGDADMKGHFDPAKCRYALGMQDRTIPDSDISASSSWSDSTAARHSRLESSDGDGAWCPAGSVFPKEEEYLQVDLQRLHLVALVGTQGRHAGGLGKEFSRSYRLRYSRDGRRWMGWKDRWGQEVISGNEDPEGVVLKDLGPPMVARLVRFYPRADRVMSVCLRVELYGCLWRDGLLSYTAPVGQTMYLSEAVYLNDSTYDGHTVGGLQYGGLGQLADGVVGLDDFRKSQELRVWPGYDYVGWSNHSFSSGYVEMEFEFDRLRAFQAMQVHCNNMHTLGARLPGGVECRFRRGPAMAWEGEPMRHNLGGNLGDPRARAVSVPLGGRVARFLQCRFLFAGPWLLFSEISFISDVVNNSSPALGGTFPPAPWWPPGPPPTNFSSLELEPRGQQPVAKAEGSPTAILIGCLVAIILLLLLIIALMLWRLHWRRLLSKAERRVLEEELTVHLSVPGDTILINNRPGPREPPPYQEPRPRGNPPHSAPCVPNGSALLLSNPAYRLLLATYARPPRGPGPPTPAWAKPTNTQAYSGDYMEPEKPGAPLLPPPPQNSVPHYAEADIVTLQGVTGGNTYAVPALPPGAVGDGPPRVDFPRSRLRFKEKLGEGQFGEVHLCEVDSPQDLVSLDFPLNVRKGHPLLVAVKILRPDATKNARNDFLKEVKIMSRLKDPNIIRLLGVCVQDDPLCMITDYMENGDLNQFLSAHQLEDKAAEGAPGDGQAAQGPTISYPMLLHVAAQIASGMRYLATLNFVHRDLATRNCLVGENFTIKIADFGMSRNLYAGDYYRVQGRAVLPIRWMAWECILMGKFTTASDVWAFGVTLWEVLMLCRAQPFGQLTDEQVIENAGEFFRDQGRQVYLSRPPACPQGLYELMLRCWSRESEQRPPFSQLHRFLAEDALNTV
compound,measurement,setting,value
C=CC(=O)Nc1cc(-n2c(=O)ccc3cnc4ccc(-c5ccc(NS(C)(=O)=O)cc5)cc4c32)ccc1C,% of control,[1]; at 1 µM,100%
same,% of control,[1]; at 10 µM,75%
CNC(=O)Nc1ccc(-c2nc(N3CC4CCC(C3)O4)c3cnn(C4CCC5(CC4)OCCO5)c3n2)cc1,% of inhibition,[2],0%
Cn1cc(-n2cnc3c(NCc4nc5cc(Cl)c(Cl)cc5[nH]4)nc(N4CCOCC4)nc32)cn1,% of inhibition,[3],-20.1%
same,% of inhibition,[4],-29.9%
same,% of inhibition,[5],-2.81%
